Source: article PMC5295395, “Inhibition of PlexA1-mediated brain tumor growth and tumor-associated angiogenesis using a transmembrane domain targeting peptide” (Oncotarget, 2016)

Key:
[1] = test system: Rac1; assay: ELISA-based Rac1 activation assay in U373MG cells; assay type: cell-based, human
Description: (C) Rac-1 activation assay in resting condition and after Sema3A-induced Rac-1 activation in U373 MG cells. (D) Western blot analysis of phosphorylated Akt, total Akt and tubulin in U373MG cells treated with the vehicle (LDS 72 μM), Sema3A (100 ng/ml) or Sema3A + MTP-PlexA1 (10^−7 M). The lower panel is showing the quantification of the p-Akt/Akt ratio in the different conditions. (E) MTP-PlexA1 decreases VEGFR-2 phosphorylation induced by VEGF (100 ng/ml) in HUVEC cells.
PlexA1 is a Rho-GTPase activating protein. Consistently, it has been shown that in response to Sema3A, the Rho-GTPase Rac1 is activated and sequestered at the plasma membrane. […] Moreover, it has been shown that Sema3A inhibits Akt phosphorylation through binding of Rnd1 to PlexA1. […] From these experiments we concluded that MTP-PlexA1 is able to antagonize major signaling pathways of PlexA1 receptor.

[2] = test system: HMEC cells; assay: 3D migration assay with HMEC spheroids in plasma clot; assay type: cell-based, human; details: 3D plasma clot, MTP-PlexA1 10^−7 M, VEGF 100 ng/ml
[3] = test system: chick chorio-allantoic membrane blood vessels; assay: chick embryonic chorio-allantoic membrane assay; assay type: in vivo; details: chick CAM, local deposition, 10^−7 M, 24 h incubation
Description: The CAM assay was performed using Leghorn eggs. After 4 days incubation at 37°C, the shells were opened and the embryos were transferred to a Petri dish. The CAMs were grown for additional 4 days before deposition of silicone reservoirs in a region containing one large vessel. Reservoirs were filled with 20 μl VEGF165 solution (20 μg/ml) or a combination of VEGF165 (20 μg/ml) + MTP-PlexA1 (10–7 M). After 24 h incubation, micro- photographs were taken for quantification of vessel growth. Camera lucida drawing was systematically performed to allow better counting of blood vessels and sprouting; the entire analysis being performed in blind conditions.

[4] = test system: PlexA1-NRP1 interactions; assay: proximity ligation assay on U118MG tumor sections; assay type: in vivo, human cells in mouse; details: proximity ligation assay on tumor tissue, treated mice; p = 0.0051, Mann Whitney
Description: To address the biological consequences of MTP-PlexA1-mediated inhibition of PlexA1 we used the U118MG-Luc glioma cell line genetically engineered to express the luciferase reporter gene. […] Cells were then grafted subcutaneously and tumor growth was monitored every 5 days for a total period of 20 days. […] The quantitative analysis of the cumulated luminescent signal acquired all along the protocol confirmed the strong reduction of tumor development translating into a marked 75% reduction of the averaged luminescent signal at the end point (Figure 6C). […] In order to clarify the mechanism by which MTP-PlexA1 is exerting tumor growth inhibition we collected tumors and analyzed them histologically.
(B) Representative photographs illustrating the kinetic of tumor growth over 20 days in the two experimental groups. […] (D) Waterfall plot of best response representing the percent change in tumor volume of individual treated animals (grey bars, n = 10) compared to the average tumor volume increased determined in the control group (dark bars, n = 10). […] (F) Representative microphotographs and related quantification of PH3 positive cells in tumor slices (G) Representative microphotographs and related quantification of CD31 positive regions in tumor slices (% CD31 per μm² of tumors).

[5] = test system: NCH644 glioma stem cell tumors in nude mice; assay: NCH644-mCherry xenograft in nude mice, cells pre-incubated with peptide; assay type: in vivo, human cells in mouse; details: 5 days
Description: Mounting evidence supports a crucial role of cancer stem cells in the initiation or relapse of tumors. This is particularly the case for gliomas. Thus, we decided to evaluate to what extent MTP-PlexA1 would affect glioma stem cell (GSC) growth. To this end, we used the NCH644 human cell line derived from a patient biopsy. […] We next performed a sphere forming assay in which cells were plated into 96-well plates at a low density (30 cells per well) to monitor production of clones from individual cells growing as non-adherent gliomaspheres. A minimum of 30 cells per well was required to allow sufficient sphere production (composed of at least 8 cells) in a time frame compatible with drug testing. Visual control of sphere formation on a daily basis confirmed that cellular edifices were arising from single cells and not due to cell clumping. […] To address whether this inhibitory effect is sufficient to impede tumor development in vivo we performed a xenograft experiment. NCH644 GCS were grafted in the flank of nude mice in a way to obtain two bilateral tumors derived from either control cells without treatment or from cells that had been pre-incubated with MTP-PlexA1. This was done using a fluorescent version of the NCH644 cell line (mCherry-NCH644) allowing live monitoring of tumor appearance (Figure 7E). […]
Experiments were performed according to the Guide for Care and Use of Laboratory Animals (E67-6-482-21) and the European Directive with approval of the regional ethical committee (Reference AL/55/62/02/13). […] For the experiment conducted with cancer stem cell line NCH644mCherry, we performed bilateral grafting of 10^6 cells on each flank of 20 nude mice without treatment or pre-incubated for 1 hour with MTP-PlexA1 at 10–7 M. After 5 days, the fluorescence emission of developing tumors was recorded using the NightOwl system (Berthold) using appropriate excitation and emission filters (580 nm/620 nm respectively).

## TLPAIVGIGGGGGLLLLVIVAVLIAYKRK [MTP-PlexA1, synthetic transmembrane peptide mimicking the TMD of PlexA1]
[1]; Sema3A-induced
  Rac1 activity, Sema3A-induced: significantly inhibited
[1]; resting condition
  Rac1 activity in the absence of ligand: not affecting
[2]
  VEGFA-induced HMEC cell migration: abolished
[3]
  VEGFA-induced vascular growth and complexity: significantly inhibited
[4]
  change of PlexA1-NRP1 interactions in tumor sections: −48.5%
[5]; NCH644 cells pre-incubated 1 h at 10–7 M, p = 0.0032, Mann Whitney
  change of number of detectable tumors: −71.4%
[5]; NCH644 cells pre-incubated 1 h at 10–7 M, untreated control 14 tumors in 20 mice, p = 0.0032
  detectable tumors after grafting pre-incubated cells: 4 out of 20
[5]; NCH644 cells pre-incubated, fluorescence, p = 0.4258
  size of tumors that were able to grow: comparable to the one of the control group
